From EP3570868B1, “[…] ANTIMICROBIAL PEPTIDES AND THEIR APPLICATIONS FOR THE TREATMENT AND PREVENTION OF MUSCU[…]” (Ustav Organicke Chemie a Biochemie AV CR, v.v.i., priority 2017, dated 2018)
Square brackets hold non-standard residues; d marks the D form. Peptide text beside a SMILES is read from it. Met(O) = CS(=O)CC[C@H](N)C(=O)O

Legend:
human red blood cells = assay: Determination of haemolytic activity; format: cell-based; conditions: human red blood cells (5% v/v), 1 h at 37 °C; concentration for lysis of 50% of erythrocytes
Procedure: The peptides in the concentrations 2-400 µmol.1^-1 were incubated with the suspension of human red blood cells (5% v/v) for 1 h at 37 °C in a physiological solution at a final volume of 0.2 ml. The samples were then centrifuged for 5 min at 250 g. The absorbance of the supernatant was determined at 540 nm. 0.2% (v/v) TRITON X100 was used as a control for 100% haemolysis. Haemolytic activity is expressed as the peptide concentration required for lysis of 50% of human erythrocytes in the assay (LC50). Table 2. Antimicrobial and haemolytic activity of I up to XIII peptides and tetracycline.

[1] = tested on: S.e. (clin. isolate Motol); format: cell-based, Staphylococcus epidermidis; conditions: 37° C for 20 h
Procedure: (§1) Gram-positive bacteria (Bacillus subtilis, Staphylococcus aureus, Staphylococcus epidermidis and Enterococcus faecalis), Gram-negative bacteria (Escherichia coli and Pseudomonas aeruginosa) and the yeast (Candida albicans) were grown to exponential phase and then were diluted with fresh medium. BHI medium (Oxoid, Great Britain) was used for Enterococcus faecalis; YPD medium containing yeast extract, peptone and glucose was used for Candida albicans and LB medium (Sigma, Czech Republic) was used for the remaining microorganisms. Then the microorganisms were added to the solutions of the tested antimicrobial peptides in LB medium in multi-well plates, so that the final peptide concentration it the wells was in the range of 0.5 to 100 µmοl.1^-1. The plates were incubated at 37° C for 20 h while being continuously shaken in a Bioscreen C (Oy Growth Curves AB Ltd., Helsinki, Finland). Absorbance was measured at 540 nm every 15 min. Antimicrobial activity (Table 2) was determined as a quantitative minimum inhibitory concentration (MIC) by observing bacterial growth in the presence of different concentrations of tested peptides. In the experiments, ca 10^5 CFU of bacteria or candida per well were used. Tetracycline in a concentration range of 0.5 - 100 µmol.1^-1 was used as a standard.
(§2) Clinical isolates of bacteria were obtained from University Hospital in Motol, Prague, Czech Republic and from Liberec Regional Hospital, Czech Republic. Methicillin resistant Staphylococcus aureus (MRSA) 6271 and Pseudomonas aeruginosa 5482 were from the Czech National Collection of Type Cultures, the National Institute of Public Health, Prague, Czech Republic. Other bacteria were from the Czech Collection of Microorganisms, Brno, Czech Republic. Candida albicans came from the Faculty of Medicine, Palacky University, Olomouc, Czech Republic. Candida tropicalis ATCC 750 and Candida glabrata DSY 565 were obtained from the Institute of Physiology, Academy of Sciences of the Czech Republic.

MRSA 6271 [2] = format: cell-based, Staphylococcus aureus; conditions: 37° C for 20 h
Procedure: as §1, §2

[3] = tested on: MRSA (clin. isolate Motol); format: cell-based, Staphylococcus aureus; conditions: 37° C for 20 h
Procedure: as §1, §2

[4] = tested on: MRSA (clin. isolate Liberec); format: cell-based, Staphylococcus aureus; conditions: 37° C for 20 h
Procedure: as §1, §2

[5] = tested on: E.f. (clin. isolate Motol); format: cell-based, Enterococcus faecalis; conditions: 37° C for 20 h
Procedure: as §1, §2

MRSA 6271 [6] = assay: Biofilm formation on the surface of a bone cement implant in femur heads; format: cell-based, Staphylococcus aureus; conditions: two days, cement without peptide 6.0x10^4
Procedure: (§6) The resulting elastic paste is placed into a 2 ml plastic syringe (without needle) and pressed into the infected holes in the spongy part of the bone, where it polymerizes and hardens. For comparison, other similarly infected holes are filled with cement containing only an antibiotic or antimycotic agent. For comparison, a Vancogenx® cement (Tecresa S. p. A., Italy) is used, made from a mixture of a powdered polymer component containing vancomycin and gentamicin. The mixture in an amount of 125 mg is mixed with liquid monomer (50-60 µl) and then pressed into the openings as described above. In another embodiment, the cements are applied to uninfected holes, allowed to harden, and then microbes are pipetted into the hole excavated between implants. From there they penetrate through bone tissue and settle on the implants with consequent formation of biofilms.
After two days, implants are removed with metal spikes and tweezers, mechanically cleaned from debris of bone tissue, and washed four times with physiological saline (0.5 ml) in plastic tubes to remove any residual planktonic microbes or bone cells from their surface. The implants in closed tubes with 0.4 ml saline are then sonicated four times for 3 min with occasional shaking. The of microbial biofilm on the surface of the implant is thus disrupted and microbes are loosed into the physiological saline. The resulting suspension is subsequently diluted using the tenfold serial dilution for culturing on agar.
Evaluation of the effect of antimicrobial peptides on the formation of microbial biofilm on the surface of the implant made of the bone cement.

P.a. 5482 = format: cell-based, Pseudomonas aeruginosa; conditions: 37° C for 20 h
Procedure: as §1, §2

[7] = tested on: P.a. (clin. isolate Liberec); format: cell-based, Pseudomonas aeruginosa; conditions: 37° C for 20 h
Procedure: as §1, §2

Candida albicans = format: cell-based; conditions: C.a.; 37° C for 20 h
Procedure: as §1, §2

Bacillus subtilis = format: cell-based; conditions: B.s.; 37° C for 20 h
Procedure: as §1, §2

Escherichia coli = format: cell-based; conditions: E.c.; 37° C for 20 h
Procedure: as §1, §2

[8] = tested on: Candida albicans yeast (clinical isolate Olomouc); assay: Comparison of two similar halictin peptides for biofilm formation on the implant surface (yeast pipetted into a hole between implants); format: cell-based; conditions: 3.5 mg peptide in 100 mg powder cement component; two days; implant without peptide 1.8 × 10^3
Procedure: The experiment was performed under similar conditions as described in Example 5. Here, 100 mg of the powder cement component was used to prepare a paste, which was mixed with in 3.5 mg of peptide XIII and subsequently 52 µl of liquid component. The resulting paste was thoroughly mixed and then pressed into a hole prepared in the spongy part of the bone. To a next hole in the spongy part of the same bone a paste was pressed, containing comparative peptide Hal 2/4 (3.5 mg) with the sequence H-[…]NH2, which was also prepared from 100 mg of the powder component and 52 µl of the liquid component. The third hole was filled with paste without peptide prepared from the same amount of components. The Candida albicans yeast (clinical isolate Olomouc), grown in YPG, was pipetted in the hole excavated between implants equidistant (approximately 1 cm) from each. From there, the yeast penetrated through the bone tissue and was deposited on the implant with consequent formation of biofilms.
Then the implants in closed tubes with 0.4 ml of saline were treated ultrasonically four times for three minutes with occasional shaking. This way, microbial biofilm on the surface of the implant was disrupted and microbes loosed into the physiological saline. The resulting suspension was then diluted in a decimal dilution series for culturing on agar. […]

[9] = tested on: S. epidermidis (clin. isolate Motol); assay: Induced osteomyelitis model in femur heads: effect of peptides released from carrier on infection in the bone graft; format: cell-based; conditions: 10 mg, two days
Procedure: (§3) 3-4 holes of a diameter of 5 mm and a depth of 10 mm are drilled with a surgical spoon into a femur head under sterile conditions (spongy part of the bone in the resection site). Thereafter, this bone graft is put into a beaker of appropriate size and lined with sterile gauze squares. The gauze is moistened with sterile physiological saline to prevent drying of the bone. Then, suspension of multiplied microbes in an appropriate medium (50-100 µl) at a concentration of 10^7 to 10^9 CFU is sequentially applied to the prepared holes in the bone graft and allowed to incubate for 1-2 days. […] Beaker with the infected bone graft is covered with a sterile Petri dish. During the experiment, induced osteomyelitis models are kept protected from light at room temperature.
(§4) After the incubation, the infected holes in the bone are filled with a mixture of the local carrier, and a peptide selected from the series of peptides of formulae I to XIII or their specific enantiomers (Figure 1). For comparison, one of the holes is filled with the local carrier without peptide, or the carrier filled with antibiotic (vancomycin or gentamicin). A commercially available two-component material supplied by Synthes (Synthes GmbH, Switzerland) under the name ChronOS Inject was used as the carrier. Its solid component comprises a mixture of calcium phosphates CaHPO4.2H2O and Ca3(PO4)2 and additives, the liquid component is 0.5% (vol./vol.) solution of hyaluronic acid.
(§5) After two days, the filling is thoroughly removed with a surgical spoon and empty holes are wiped with moistened sterile cotton swab, which is then extracted into 400 µl physiological saline. The extract is diluted in a tenfold serial dilution and each diluted suspension is cultured on agar in Petri dishes; the culture is evaluated on the following day. […] The result of the peptide effect is also compared with the result of the effect of antibiotics. In some cases, microbiological examination of the bone tissue taken with a surgical spoon from a deeper area of the drilled holes is performed. […] Table 3. Evaluation of the effect of antimicrobial peptides released from the carrier on an infection in the bone graft. Effect of antimicrobial activity is expressed in the number of CFU (colony-forming units) in the infected hole after swabbing.

[10] = tested on: S. aureus (clin. isolate Liberec); assay: as above; format: cell-based; conditions: ChronOS (200 mg), 10 mg, two days
Procedure: as §3, §4, §5

[11] = tested on: MRSA (clin. isolate Liberec); assay: Biofilm formation on the surface of a bone cement implant in femur heads; format: cell-based, Staphylococcus aureus; conditions: two days, cement without peptide 7,0x10^6
Procedure: as §6
After two days, implants are removed with metal spikes and tweezers, mechanically cleaned from debris of bone tissue, and washed four times with physiological saline (0.5 ml) in plastic tubes to remove any residual planktonic microbes or bone cells from their surface. The implants in closed tubes with 0.4 ml saline are then sonicated four times for 3 min with occasional shaking. The of microbial biofilm on the surface of the implant is thus disrupted and microbes are loosed into the physiological saline. […]

With `CC[C@H](C)[C@H](NC(=O)[C@H](CCCCN)NC(=O)[C@H](CCCCN)NC(=O)[C@H](CC(C)C)NC(=O)[C@H](CC(C)C)NC(=O)[C@H](CCCCN)NC(=O)[C@H](CC[S+](C)[O-])NC(=O)[C@H](Cc1c[nH]c2ccccc12)NC(=O)[C@H](CCCCN)NC(=O)CN)C(=O)N[C@@H](CC(C)C)C(=O)N[C@@H](CCCCN)C(N)=O` (stereo partly drawn) [XII] (H-GKW[Met(O)]KLLKKILK-NH2) the “Hemolytic activity LC50” value (human red blood cells) was >400 µmol/L, the “Antimicrobial activity MIC” value [1] was 5,0 µmol.l^-1 and the “Antimicrobial activity MIC” value (MRSA 6271 [2]) was 64,0 µmol.l^-1. For the same molecule, the “Antimicrobial activity MIC” value [3] was 25,3 µmol.l^-1, the “Antimicrobial activity MIC” value [4] was 11,5 µmol.l^-1 and the “Antimicrobial activity MIC” value [5] was >100 µmol/L. For the same molecule, the CFU/implant (MRSA 6271 [6]) was 0 CFU/implant, the “Antimicrobial activity MIC” value (P.a. 5482) was 5,0 µmol.l^-1 and the “Antimicrobial activity MIC” value [7] was 22,1 µmol.l^-1. The “Antimicrobial activity MIC” value (Candida albicans) was 21,3 µmol.l^-1, the “Antimicrobial activity MIC” value (Bacillus subtilis) was 2,5 µmol.l^-1 and the “Antimicrobial activity MIC” value (Escherichia coli) was 26,7 µmol.l^-1.
With `CC[C@H](C)[C@H](NC(=O)[C@H](CCCCN)NC(=O)[C@H](CCCCN)NC(=O)[C@H](CC(C)C)NC(=O)[C@H](CC(C)C)NC(=O)[C@H](CO)NC(=O)[C@H](CCSC)NC(=O)[C@H](Cc1c[nH]c2ccccc12)NC(=O)[C@@H](N)CCCCN)C(=O)N[C@@H](CC(C)C)C(=O)N[C@@H](CCCCN)C(N)=O` [Hal 4/2, reference compound] (H-KWMSLLKKILK-NH2) the “number of colonies from the surface of the implant” value [8] was 2.8 × 10^2 CFU/implant.
For `CC[C@H](C)[C@H](NC(=O)[C@H](CCCCN)NC(=O)[C@H](CCCCN)NC(=O)[C@H](CC(C)C)NC(=O)[C@H](CC(C)C)NC(=O)[C@H](CCCCN)NC(=O)[C@H](CC(C)C)NC(=O)[C@H](Cc1c[nH]c2ccccc12)NC(=O)[C@H](CCCCN)NC(=O)CN)C(=O)N[C@@H](CC(C)C)C(=O)N[C@@H](CCCCN)C(N)=O` [Peptide VII] (H-GKWLKLLKKILK-NH2), the “Hemolytic activity LC50” value (human red blood cells) was 196 µmol/L, the “Antimicrobial activity MIC” value [1] was 2,2 µmol.l^-1 and the “Antimicrobial activity MIC” value (MRSA 6271 [2]) was 10,0 µmol.l^-1. For the same molecule, the “Antimicrobial activity MIC” value [3] was 10,0 µmol.l^-1, the “Antimicrobial activity MIC” value [4] was 8,0 µmol.l^-1 and the “Antimicrobial activity MIC” value [5] was 50,7 µmol.l^-1. The CFU/hole ([9]; ChronOS (200 mg), carrier without peptide 7,2x10^4) was 1,2 x10^2 CFU/hole, the “Antimicrobial activity MIC” value (P.a. 5482) was 4,0 µmol.l^-1 and the “Antimicrobial activity MIC” value [7] was 10,7 µmol.l^-1. For the same molecule, the “Antimicrobial activity MIC” value (Candida albicans) was 16,0 µmol.l^-1, the “Antimicrobial activity MIC” value (Bacillus subtilis) was 2,0 µmol.l^-1 and the “Antimicrobial activity MIC” value (Escherichia coli) was 5,0 µmol.l^-1.
With `CC[C@@H](C)[C@@H](NC(=O)[C@@H](CCCCN)NC(=O)[C@@H](CCCCN)NC(=O)[C@@H](CC(C)C)NC(=O)[C@@H](CC(C)C)NC(=O)[C@@H](CCCCN)NC(=O)[C@@H](CCSC)NC(=O)[C@@H](Cc1c[nH]c2ccccc12)NC(=O)[C@H](N)CCCCN)C(=O)N[C@H](CC(C)C)C(=O)N[C@H](CCCCN)C(N)=O` [II] (H-[dK][dW][dM][dK][dL][dL][dK][dK][dI][dL][dK]-NH2) the “Hemolytic activity LC50” value (human red blood cells) was >400 µmol/L and the CFU/hole ([10]; carrier without peptide 1,4x10^7) was 1,8 x10^4 CFU/hole.
With `CC[C@H](C)[C@H](NC(=O)[C@H](CCCCN)NC(=O)[C@H](CCCCN)NC(=O)[C@H](CC(C)C)NC(=O)[C@H](CCSC)NC(=O)[C@H](CCCCN)NC(=O)[C@H](CCSC)NC(=O)[C@H](Cc1c[nH]c2ccccc12)NC(=O)[C@H](CCCCN)NC(=O)CN)C(=O)N[C@@H](CC(C)C)C(=O)N[C@@H](CCCCN)C(N)=O` [XI] (H-GKWMKMLKKILK-NH2) the “Hemolytic activity LC50” value (human red blood cells) was >>200 µmol.l^-1, the “Antimicrobial activity MIC” value [1] was 3,2 µmol.l^-1 and the CFU/implant [11] was 0 CFU/implant. For the same molecule, the “Antimicrobial activity MIC” value (MRSA 6271 [2]) was 20,0 µmol.l^-1, the “Antimicrobial activity MIC” value [3] was 20,0 µmol.l^-1 and the “Antimicrobial activity MIC” value [4] was 10,0 µmol.l^-1. The “Antimicrobial activity MIC” value [5] was >100 µmol/L, the CFU/hole ([10]; carrier without peptide 2,0x10^6) was 2,5 x10^3 CFU/hole and the “Antimicrobial activity MIC” value (P.a. 5482) was 5,3 µmol.l^-1. For the same molecule, the “Antimicrobial activity MIC” value [7] was 12,7 µmol.l^-1, the “Antimicrobial activity MIC” value (Candida albicans) was 12,7 µmol.l^-1 and the “Antimicrobial activity MIC” value (Bacillus subtilis) was 2,5 µmol.l^-1. The “Antimicrobial activity MIC” value (Escherichia coli) was 20,0 µmol.l^-1.
With `CC[C@@H](C)[C@@H](NC(=O)[C@@H](CCCCN)NC(=O)[C@@H](CCCCN)NC(=O)[C@@H](CC(C)C)NC(=O)[C@@H](CC(C)C)NC(=O)[C@@H](CCCCN)NC(=O)[C@H](NC(=O)[C@@H](Cc1c[nH]c2ccccc12)NC(=O)[C@@H](CCCCN)NC(=O)CN)C(C)C)C(=O)N[C@H](CC(C)C)C(=O)N[C@H](CCCCN)C(N)=O` [IX] (H-G[dK][dW][dV][dK][dL][dL][dK][dK][dI][dL][dK]-NH2) the “Hemolytic activity LC50” value (human red blood cells) was >400 µmol/L and the CFU/hole ([9]; ChronOS (300 mg), separate holes, carrier without peptide 1,2x10^5) was 0 in all cases CFU/hole.
